Assay results taken from publication PMC11640419, “New Synthetic Analogs of Natural 5Z,9Z-Dienoic Acids—Hybrid Molecules Based on Oleanolic Acid: Synthesis and Study of Antitumor Activity” (Cancers, 2024).

What was measured:
[1] = Cytotoxicity assay (7-AAD, flow cytometry); format: cell-based, human; conditions: human, Jurkat cells; Jurkat, 24 h incubation
Protocol: The human cell lines Jurkat, K562, U937, and HEK293 were obtained from the European Collection of Authenticated Cell Cultures (ECACC) and subsequently cultured in accordance with established standard protocols and sterile techniques. […] Subsequently, the cells were seeded into 24-well plates at a density of 5 × 10^4 cells per well and incubated for 12 h (Jurkat, K562, U937) and 24 h (HEK293).
The viability of the cells was evaluated through the utilization of the 7-AAD (7-aminoactinomycin D) dye (eBioscience™, San Diego, CA, USA). Following a 24 h incubation period with the test substances, the cells were washed with phosphate-salt buffer (PBS) and centrifuged at 400× g for five minutes. […] Subsequently, all cell samples were subjected to analysis on a NovoCyte Penteon flow cytometer (Agilent, Santa Clara, CA, USA).

[2] = Cytotoxicity assay (7-AAD, flow cytometry); format: cell-based, human; conditions: human
Protocol: The human cell lines Jurkat, K562, U937, and HEK293 were obtained from the European Collection of Authenticated Cell Cultures (ECACC) and subsequently cultured in accordance with established standard protocols and sterile techniques. The cells were maintained in RPMI 1640 (for Jurkat, K562, and U937) or DMEM (for HEK293) medium, both of which were supplemented with […], 10% FBS (Sigma, Kanagawa, Japan), and 100 units/mL penicillin-streptomycin (Sigma). Subsequently, the cells were seeded into 24-well plates at a density of 5 × 10^4 cells per well and incubated for 12 h (Jurkat, K562, U937) and 24 h (HEK293).
The viability of the cells was evaluated through the utilization of the 7-AAD (7-aminoactinomycin D) dye (eBioscience™, San Diego, CA, USA). Following a 24 h incubation period with the test substances, the cells were washed with phosphate-salt buffer (PBS) and centrifuged at 400× g for five minutes. The precipitate was resuspended in 200 μL of flow cytometry buffer (PBS without calcium and magnesium, 2.5% FBS) and incubated with a 1 mM 7-AAD dye solution for 15 min in the dark at room temperature. Subsequently, all cell samples were subjected to analysis on a NovoCyte Penteon flow cytometer (Agilent, Santa Clara, CA, USA).

[3] = HEK293 cells, HEK293, 24 h incubation
[4] = K562 cells, K562, 24 h incubation
[5] = U937 cells, U937, 24 h incubation

SMILES | CC50 at 24 h [1] | CC50 at 24 h [2, 3] | CC50 at 24 h [2, 4] | CC50 at 24 h [2, 5]
CC1(C)CC[C@]2(C(=O)O)CC[C@]3(C)C(=CC[C@@H]4[C@@]5(C)CC[C@H](O)C(C)(C)[C@@H]5CC[C@]43C)[C@@H]2C1 [Oleanoic acid, Oleanolic acid] | 199 ± 18.4 µM | 497 ± 39.8 µM | 171 ± 16.5 µM | 144 ± 14.3 µM
CC(=O)O[C@H]1CC[C@@]2(C)C(CC[C@]3(C)C2CC=C2C4CC(C)(C)CC[C@]4(C(=O)Nc4c(C)n(C)n(-c5ccccc5)c4=O)CC[C@]23C)C1(C)C (stereo partly shown) [compound 7b] | 86.5 ± 8.46 µM | 218 ± 20.7 µM | 81.3 ± 7.98 µM | 72.2 ± 7.34 µM
CC(=O)O[C@H]1CC[C@@]2(C)C(CC[C@]3(C)C2CC=C2C4CC(C)(C)CC[C@]4(C(=O)NC45CC6CC(CC(C6)C4)C5)CC[C@]23C)C1(C)C (stereo partly shown) [compound 7c] | 121 ± 11.8 µM | 366 ± 34.7 µM | 104 ± 10.6 µM | 98.9 ± 9.54 µM
CC(=O)O[C@H]1CC[C@@]2(C)C(CC[C@]3(C)C2CC=C2C4CC(C)(C)CC[C@]4(C(=O)NC(C)C45CC6CC(CC(C6)C4)C5)CC[C@]23C)C1(C)C (stereo partly shown) [compound 7d] | 120 ± 11.8 µM | 342 ± 33.8 µM | 99.9 ± 9.38 µM | 97.1 ± 8.96 µM
CC(=O)O[C@H]1CC[C@@]2(C)C(CC[C@]3(C)C2CC=C2C4CC(C)(C)CC[C@]4(C(=O)NCc4cccs4)CC[C@]23C)C1(C)C (stereo partly shown) [compound 7e] | 131 ± 12.5 µM | 438 ± 42.6 µM | 125 ± 11.9 µM | 108 ± 11 µM
CC(=O)O[C@H]1CC[C@@]2(C)C(CC[C@]3(C)C2CC=C2C4CC(C)(C)CC[C@]4(C(=O)Nc4nccs4)CC[C@]23C)C1(C)C (stereo partly shown) [compound 7f] | 152 ± 14.1 µM | 494 ± 42.2 µM | 144 ± 12.8 µM | 132 ± 12.9 µM
CC(=O)O[C@H]1CC[C@@]2(C)C(CC[C@]3(C)C2CC=C2C4CC(C)(C)CC[C@]4(C(=O)Nc4ccncc4)CC[C@]23C)C1(C)C (stereo partly shown) [compound 7g] | 143 ± 14.3 µM | 430 ± 41.9 µM | 125 ± 11.9 µM | 112 ± 12.3 µM
CC(=O)O[C@H]1CC[C@@]2(C)C(CC[C@]3(C)C2CC=C2C4CC(C)(C)CC[C@]4(C(=O)Nc4cc(C)on4)CC[C@]23C)C1(C)C (stereo partly shown) [compound 7h] | 146 ± 14 µM | 489 ± 44.8 µM | 139 ± 12.9 µM | 129 ± 11.7 µM
CC(=O)O[C@H]1CC[C@@]2(C)C(CC[C@]3(C)C2CC=C2C4CC(C)(C)CC[C@]4(C(=O)Nc4cccc5cccnc45)CC[C@]23C)C1(C)C (stereo partly shown) [compound 7i] | 153 ± 13.9 µM | 456 ± 42.7 µM | 133 ± 12.9 µM | 122 ± 12.8 µM
Cn1nccc1NC(=O)[C@]12CCC(C)(C)CC1C1=CCC3[C@@]4(C)CC[C@H](O)C(C)(C)C4CC[C@@]3(C)[C@]1(C)CC2 (stereo partly shown) [compound 8a] | 23.8 ± 2.84 µM | 110 ± 10.3 µM | 20.4 ± 2.11 µM | 19.6 ± 1.96 µM
Cc1c(NC(=O)[C@]23CCC(C)(C)CC2C2=CCC4[C@@]5(C)CC[C@H](O)C(C)(C)C5CC[C@@]4(C)[C@]2(C)CC3)c(=O)n(-c2ccccc2)n1C (stereo partly shown) [compound 8b] | 98.7 ± 9.39 µM | 267 ± 22.7 µM | 94.8 ± 9.57 µM | 85.4 ± 8.64 µM
CC1(C)CC[C@]2(C(=O)NC34CC5CC(CC(C5)C3)C4)CC[C@]3(C)C(=CCC4[C@@]5(C)CC[C@H](O)C(C)(C)C5CC[C@]43C)C2C1 (stereo partly shown) [compound 8c] | 115 ± 12.1 µM | 414 ± 39.5 µM | 94.7 ± 8.68 µM | 57.6 ± 6.49 µM
CC(NC(=O)[C@]12CCC(C)(C)CC1C1=CCC3[C@@]4(C)CC[C@H](O)C(C)(C)C4CC[C@@]3(C)[C@]1(C)CC2)C12CC3CC(CC(C3)C1)C2 (stereo partly shown) [compound 8d] | 110 ± 11.6 µM | 398 ± 37.6 µM | 93.8 ± 8.91 µM | 58.1 ± 6.26 µM
CC1(C)CC[C@]2(C(=O)NCc3cccs3)CC[C@]3(C)C(=CCC4[C@@]5(C)CC[C@H](O)C(C)(C)C5CC[C@]43C)C2C1 (stereo partly shown) [compound 8e] | 165 ± 14.2 µM | 593 ± 53.9 µM | 149 ± 12.6 µM | 122 ± 12 µM
CC1(C)CC[C@]2(C(=O)Nc3nccs3)CC[C@]3(C)C(=CCC4[C@@]5(C)CC[C@H](O)C(C)(C)C5CC[C@]43C)C2C1 (stereo partly shown) [compound 8f] | 189 ± 17.4 µM | 611 ± 57.7 µM | 168 ± 17.1 µM | 157 ± 15 µM
CC1(C)CC[C@]2(C(=O)Nc3ccncc3)CC[C@]3(C)C(=CCC4[C@@]5(C)CC[C@H](O)C(C)(C)C5CC[C@]43C)C2C1 (stereo partly shown) [compound 8g] | 160 ± 14.3 µM | 443 ± 40.3 µM | 137 ± 12.4 µM | 135 ± 12.8 µM
Cc1cc(NC(=O)[C@]23CCC(C)(C)CC2C2=CCC4[C@@]5(C)CC[C@H](O)C(C)(C)C5CC[C@@]4(C)[C@]2(C)CC3)no1 (stereo partly shown) [compound 8h] | 179 ± 17.1 µM | 598 ± 59 µM | 161 ± 16.4 µM | 155 ± 15.2 µM
CC1(C)CC[C@]2(C(=O)Nc3cccc4cccnc34)CC[C@]3(C)C(=CCC4[C@@]5(C)CC[C@H](O)C(C)(C)C5CC[C@]43C)C2C1 (stereo partly shown) [compound 8i] | 165 ± 14.3 µM | 515 ± 40.3 µM | 155 ± 12.9 µM | 142 ± 12.5 µM
Cc1c(NC(=O)[C@]23CCC(C)(C)CC2C2=CCC4[C@@]5(C)CC[C@H](OC(=O)CCC/C=C\CC/C=C\CCCC(=O)O)C(C)(C)C5CC[C@@]4(C)[C@]2(C)CC3)c(=O)n(-c2ccccc2)n1C (stereo partly shown) [compound 9b] | 6.11 ± 0.56 µM | 21.4 ± 2.33 µM | 5.76 ± 0.69 µM | 4.86 ± 0.42 µM
CC1(C)CC[C@]2(C(=O)NC34CC5CC(CC(C5)C3)C4)CC[C@]3(C)C(=CCC4[C@@]5(C)CC[C@H](OC(=O)CCC/C=C\CC/C=C\CCCC(=O)O)C(C)(C)C5CC[C@]43C)C2C1 (stereo partly shown) [compound 9c] | 54.4 ± 5.88 µM | 167 ± 15.5 µM | 49.2 ± 5.01 µM | 29.4 ± 3.18 µM
CC1(C)CC[C@]2(C(=O)NCc3cccs3)CC[C@]3(C)C(=CCC4[C@@]5(C)CC[C@H](OC(=O)CCC/C=C\CC/C=C\CCCC(=O)O)C(C)(C)C5CC[C@]43C)C2C1 (stereo partly shown) [compound 9e] | 76.3 ± 7.25 µM | 195 ± 17.9 µM | 69.8 ± 6.99 µM | 56.4 ± 5.11 µM
CC1(C)CC[C@]2(C(=O)Nc3nccs3)CC[C@]3(C)C(=CCC4[C@@]5(C)CC[C@H](OC(=O)CCC/C=C\CC/C=C\CCCC(=O)O)C(C)(C)C5CC[C@]43C)C2C1 (stereo partly shown) [compound 9f] | 96.7 ± 9.18 µM | 205 ± 19.7 µM | 84.4 ± 8.47 µM | 79.7 ± 6.78 µM
CC1(C)CC[C@]2(C(=O)Nc3ccncc3)CC[C@]3(C)C(=CCC4[C@@]5(C)CC[C@H](OC(=O)CCC/C=C\CC/C=C\CCCC(=O)O)C(C)(C)C5CC[C@]43C)C2C1 (stereo partly shown) [compound 9g] | 80.4 ± 7.86 µM | 223 ± 21.8 µM | 72.1 ± 6.39 µM | 61.2 ± 6.48 µM
Cc1cc(NC(=O)[C@]23CCC(C)(C)CC2C2=CCC4[C@@]5(C)CC[C@H](OC(=O)CCC/C=C\CC/C=C\CCCC(=O)O)C(C)(C)C5CC[C@@]4(C)[C@]2(C)CC3)no1 (stereo partly shown) [compound 9h] | 91.2 ± 8.34 µM | 213 ± 18.3 µM | 81.5 ± 7.62 µM | 72.3 ± 6.85 µM
CC1(C)CC[C@]2(C(=O)Nc3cccc4cccnc34)CC[C@]3(C)C(=CCC4[C@@]5(C)CC[C@H](OC(=O)CCC/C=C\CC/C=C\CCCC(=O)O)C(C)(C)C5CC[C@]43C)C2C1 (stereo partly shown) [compound 9i] | 84.7 ± 8.21 µM | 262 ± 22.7 µM | 77.3 ± 6.85 µM | 62.9 ± 5.91 µM
